#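 Protocol summary: plate cells (96-well), add compound at 5 concentrations, incubate 48 h, interpolate endpoints linearly. The concentration for full growth arrest is given as TGI.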
# How the values were obtained:
# Assay in all cases: growth of human tumour cells (NCI), 48 h
# SK-MEL-2 melanoma = system: SK-MEL-2 melanoma
# SK-MEL-5 melanoma = system: SK-MEL-5 melanoma
# EKVX NSCLC = system: EKVX NSCLC
# SNB-19 CNS = system: SNB-19 CNS
# MDA-MB-435 = system: MDA-MB-435
# SW-620 colon = system: SW-620 colon
# HCT-116 colon = system: HCT-116 colon
# SK-MEL-28 melanoma = system: SK-MEL-28 melanoma
# HOP-62 NSCLC = system: HOP-62 NSCLC
# UO-31 renal = system: UO-31 renal
# HCT-15 colon = system: HCT-15 colon
# HCC-2998 colon = system: HCC-2998 colon
# OVCAR-5 ovarian = system: OVCAR-5 ovarian
# OVCAR-4 ovarian = system: OVCAR-4 ovarian
# SNB-75 CNS = system: SNB-75 CNS
# HT29 colon = system: HT29 colon
# 786-0 renal = system: 786-0 renal
# MDA-MB-231 breast = system: MDA-MB-231 breast
# KM12 colon = system: KM12 colon
# DU-145 prostate = system: DU-145 prostate
# SR leukemia = system: SR leukemia
# CAKI-1 renal = system: CAKI-1 renal
# U251 CNS = system: U251 CNS
# SF-295 CNS = system: SF-295 CNS
# IGROV1 ovarian = system: IGROV1 ovarian
# M14 melanoma = system: M14 melanoma
# RXF 393 renal = system: RXF 393 renal
# TK-10 renal = system: TK-10 renal
# MDA-N = system: MDA-N
# HS 578T breast = system: HS 578T breast
# RPMI-8226 leukemia = system: RPMI-8226 leukemia
# MALME-3M melanoma = system: MALME-3M melanoma
# SN12C renal = system: SN12C renal
# K-562 leukemia = system: K-562 leukemia
# UACC-257 melanoma = system: UACC-257 melanoma
# OVCAR-8 ovarian = system: OVCAR-8 ovarian
# CCRF-CEM leukemia = system: CCRF-CEM leukemia
# ACHN renal = system: ACHN renal
# T-47D breast = system: T-47D breast
# SF-268 CNS = system: SF-268 CNS
# UACC-62 melanoma = system: UACC-62 melanoma
# MOLT-4 leukemia = system: MOLT-4 leukemia
# SK-OV-3 ovarian = system: SK-OV-3 ovarian
# NCI-H460 lung = system: NCI-H460 lung
# A549 NSCLC = system: A549 NSCLC
# NCI-H226 lung = system: NCI-H226 lung
# A498 renal = system: A498 renal
# COLO 205 colon = system: COLO 205 colon
# LOX IMVI melanoma = system: LOX IMVI melanoma
# PC-3 prostate = system: PC-3 prostate
# MCF7 breast = system: MCF7 breast
# NCI/ADR-RES ovarian = system: NCI/ADR-RES ovarian
# BT-549 breast = system: BT-549 breast
# NCI-H522 lung = system: NCI-H522 lung
# OVCAR-3 ovarian = system: OVCAR-3 ovarian
# HOP-92 NSCLC = system: HOP-92 NSCLC
# NCI-H23 lung = system: NCI-H23 lung
structure (smiles),measurement,setting,value
O=C1CCC(=O)N1n1c(Cc2ccccc2)n[nH]c1=O,TGI,SK-MEL-2 melanoma,> 100 µM
same,TGI,SK-MEL-5 melanoma,> 100 µM
same,TGI,EKVX NSCLC,> 100 µM
same,TGI,SNB-19 CNS,> 100 µM
same,TGI,MDA-MB-435,> 100 µM
same,TGI,SW-620 colon,> 100 µM
same,TGI,HCT-116 colon,> 100 µM
same,TGI,SK-MEL-28 melanoma,> 100 µM
same,TGI,HOP-62 NSCLC,> 100 µM
same,TGI,UO-31 renal,> 100 µM
same,TGI,HCT-15 colon,> 100 µM
same,TGI,HCC-2998 colon,> 100 µM
same,TGI,OVCAR-5 ovarian,> 100 µM
same,TGI,OVCAR-4 ovarian,> 100 µM
same,TGI,SNB-75 CNS,> 100 µM
same,TGI,HT29 colon,> 100 µM
same,TGI,786-0 renal,> 100 µM
same,TGI,MDA-MB-231 breast,> 100 µM
same,TGI,KM12 colon,46.4 µM
same,TGI,DU-145 prostate,> 100 µM
same,TGI,SR leukemia,> 100 µM
same,TGI,CAKI-1 renal,> 100 µM
same,TGI,U251 CNS,> 100 µM
same,TGI,SF-295 CNS,> 100 µM
same,TGI,IGROV1 ovarian,> 100 µM
same,TGI,M14 melanoma,> 100 µM
same,TGI,RXF 393 renal,> 100 µM
same,TGI,TK-10 renal,> 100 µM
same,TGI,MDA-N,> 100 µM
same,TGI,HS 578T breast,> 100 µM
same,TGI,RPMI-8226 leukemia,> 100 µM
same,TGI,MALME-3M melanoma,> 100 µM
same,TGI,SN12C renal,> 100 µM
same,TGI,K-562 leukemia,> 100 µM
same,TGI,UACC-257 melanoma,> 100 µM
same,TGI,OVCAR-8 ovarian,> 100 µM
same,TGI,CCRF-CEM leukemia,> 100 µM
same,TGI,ACHN renal,> 100 µM
same,TGI,T-47D breast,> 100 µM
same,TGI,SF-268 CNS,> 100 µM
same,TGI,UACC-62 melanoma,> 100 µM
same,TGI,MOLT-4 leukemia,> 100 µM
same,TGI,SK-OV-3 ovarian,> 100 µM
same,TGI,NCI-H460 lung,> 100 µM
same,TGI,A549 NSCLC,> 100 µM
same,TGI,NCI-H226 lung,> 100 µM
same,TGI,A498 renal,> 100 µM
same,TGI,COLO 205 colon,> 100 µM
same,TGI,LOX IMVI melanoma,> 100 µM
same,TGI,PC-3 prostate,> 100 µM
same,TGI,MCF7 breast,> 100 µM
same,TGI,NCI/ADR-RES ovarian,> 100 µM
same,TGI,BT-549 breast,> 100 µM
same,TGI,NCI-H522 lung,> 100 µM
same,TGI,OVCAR-3 ovarian,> 100 µM
CCc1ccc(CCN2CCCCC2)nc1,TGI,SK-MEL-2 melanoma,> 100 µM
same,TGI,SK-MEL-5 melanoma,> 100 µM
same,TGI,EKVX NSCLC,> 100 µM
same,TGI,SNB-19 CNS,> 100 µM
same,TGI,MDA-MB-435,> 100 µM
same,TGI,SW-620 colon,> 100 µM
same,TGI,HCT-116 colon,> 100 µM
same,TGI,SK-MEL-28 melanoma,> 100 µM
same,TGI,HOP-62 NSCLC,> 100 µM
same,TGI,UO-31 renal,> 100 µM
same,TGI,HCT-15 colon,> 100 µM
same,TGI,HCC-2998 colon,> 100 µM
same,TGI,OVCAR-5 ovarian,> 100 µM
same,TGI,OVCAR-4 ovarian,> 100 µM
same,TGI,HT29 colon,> 100 µM
same,TGI,786-0 renal,> 100 µM
same,TGI,MDA-MB-231 breast,> 100 µM
same,TGI,HOP-92 NSCLC,> 100 µM
same,TGI,KM12 colon,> 100 µM
same,TGI,DU-145 prostate,> 100 µM
same,TGI,CAKI-1 renal,> 100 µM
same,TGI,U251 CNS,> 100 µM
same,TGI,SF-295 CNS,> 100 µM
same,TGI,IGROV1 ovarian,> 100 µM
same,TGI,M14 melanoma,> 100 µM
same,TGI,RXF 393 renal,> 100 µM
same,TGI,TK-10 renal,> 100 µM
same,TGI,MDA-N,> 100 µM
same,TGI,HS 578T breast,> 100 µM
same,TGI,RPMI-8226 leukemia,> 100 µM
same,TGI,MALME-3M melanoma,> 100 µM
same,TGI,SN12C renal,> 100 µM
same,TGI,K-562 leukemia,> 100 µM
same,TGI,UACC-257 melanoma,> 100 µM
same,TGI,OVCAR-8 ovarian,> 100 µM
same,TGI,CCRF-CEM leukemia,> 100 µM
same,TGI,ACHN renal,> 100 µM
same,TGI,T-47D breast,> 100 µM
same,TGI,SF-268 CNS,> 100 µM
same,TGI,UACC-62 melanoma,> 100 µM
same,TGI,MOLT-4 leukemia,> 100 µM
same,TGI,SK-OV-3 ovarian,> 100 µM
same,TGI,NCI-H460 lung,> 100 µM
same,TGI,NCI-H23 lung,> 100 µM
same,TGI,A549 NSCLC,> 100 µM
same,TGI,NCI-H226 lung,> 100 µM
same,TGI,A498 renal,> 100 µM
same,TGI,COLO 205 colon,> 100 µM
same,TGI,LOX IMVI melanoma,> 100 µM
same,TGI,PC-3 prostate,> 100 µM
same,TGI,MCF7 breast,> 100 µM
same,TGI,NCI/ADR-RES ovarian,> 100 µM
same,TGI,BT-549 breast,> 100 µM
same,TGI,NCI-H522 lung,> 100 µM
same,TGI,OVCAR-3 ovarian,> 100 µM
